The values below are quoted from earlier work in US20230037437A1, “FORMULATIONS FOR USE IN THE TREATMENT OF DIFFERENT TYPES OF ADDICTIONS AND DEPENDENCE ON ADDICTIVE SUBSTANCES” (UNIBIOLABS INTERNACIONAL S.A DE C.V, priority 2019, published 2023).

Data set [1] addresses dopamine transporter (DAT) (Homo sapiens, UniProt Q01959). The settings on record: relative to cocaine.
The next data set deals with serotonin transporter (Homo sapiens, UniProt P31645).
A further data set has as its target IKr channel (hERG) (Homo sapiens, UniProt Q12809).
A further data set has as its system cocaine abusers. Particulars: patients taking magnesium versus placebo.

dopamine transporter (DAT), sequence (Q01959 whole entry, species assumed): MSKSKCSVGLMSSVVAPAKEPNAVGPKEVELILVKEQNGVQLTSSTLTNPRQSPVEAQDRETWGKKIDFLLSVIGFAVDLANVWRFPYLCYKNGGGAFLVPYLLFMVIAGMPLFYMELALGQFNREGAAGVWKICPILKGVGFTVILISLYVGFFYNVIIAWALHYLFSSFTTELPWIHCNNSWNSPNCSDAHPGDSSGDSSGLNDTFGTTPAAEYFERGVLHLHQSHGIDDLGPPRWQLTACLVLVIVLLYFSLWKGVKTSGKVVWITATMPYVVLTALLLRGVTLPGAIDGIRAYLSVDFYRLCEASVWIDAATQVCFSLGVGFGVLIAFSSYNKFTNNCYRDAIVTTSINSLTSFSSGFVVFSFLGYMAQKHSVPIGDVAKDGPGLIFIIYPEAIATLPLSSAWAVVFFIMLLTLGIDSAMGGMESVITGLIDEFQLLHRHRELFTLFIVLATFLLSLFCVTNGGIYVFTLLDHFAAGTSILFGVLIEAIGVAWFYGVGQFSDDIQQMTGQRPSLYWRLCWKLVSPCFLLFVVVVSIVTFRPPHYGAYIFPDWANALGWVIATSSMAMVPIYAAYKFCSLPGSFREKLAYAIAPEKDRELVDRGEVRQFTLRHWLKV
serotonin transporter, sequence (P31645 whole entry): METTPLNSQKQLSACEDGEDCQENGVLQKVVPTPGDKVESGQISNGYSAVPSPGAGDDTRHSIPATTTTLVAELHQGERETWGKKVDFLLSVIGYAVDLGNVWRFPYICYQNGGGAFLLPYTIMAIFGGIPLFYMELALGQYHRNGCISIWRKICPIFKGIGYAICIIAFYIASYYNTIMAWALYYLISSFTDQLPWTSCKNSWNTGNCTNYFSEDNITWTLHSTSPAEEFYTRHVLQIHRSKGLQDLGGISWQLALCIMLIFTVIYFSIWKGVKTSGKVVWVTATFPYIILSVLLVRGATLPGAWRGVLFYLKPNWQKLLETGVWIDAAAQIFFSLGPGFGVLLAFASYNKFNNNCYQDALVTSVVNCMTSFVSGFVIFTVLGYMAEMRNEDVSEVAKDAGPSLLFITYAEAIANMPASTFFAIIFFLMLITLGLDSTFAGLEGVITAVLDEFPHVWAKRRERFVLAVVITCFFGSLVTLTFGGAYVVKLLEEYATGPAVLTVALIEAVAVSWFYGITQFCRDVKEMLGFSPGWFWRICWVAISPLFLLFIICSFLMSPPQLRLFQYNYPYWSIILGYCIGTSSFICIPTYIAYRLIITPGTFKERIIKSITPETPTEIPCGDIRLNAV
IKr channel (hERG), sequence (Q12809 whole entry): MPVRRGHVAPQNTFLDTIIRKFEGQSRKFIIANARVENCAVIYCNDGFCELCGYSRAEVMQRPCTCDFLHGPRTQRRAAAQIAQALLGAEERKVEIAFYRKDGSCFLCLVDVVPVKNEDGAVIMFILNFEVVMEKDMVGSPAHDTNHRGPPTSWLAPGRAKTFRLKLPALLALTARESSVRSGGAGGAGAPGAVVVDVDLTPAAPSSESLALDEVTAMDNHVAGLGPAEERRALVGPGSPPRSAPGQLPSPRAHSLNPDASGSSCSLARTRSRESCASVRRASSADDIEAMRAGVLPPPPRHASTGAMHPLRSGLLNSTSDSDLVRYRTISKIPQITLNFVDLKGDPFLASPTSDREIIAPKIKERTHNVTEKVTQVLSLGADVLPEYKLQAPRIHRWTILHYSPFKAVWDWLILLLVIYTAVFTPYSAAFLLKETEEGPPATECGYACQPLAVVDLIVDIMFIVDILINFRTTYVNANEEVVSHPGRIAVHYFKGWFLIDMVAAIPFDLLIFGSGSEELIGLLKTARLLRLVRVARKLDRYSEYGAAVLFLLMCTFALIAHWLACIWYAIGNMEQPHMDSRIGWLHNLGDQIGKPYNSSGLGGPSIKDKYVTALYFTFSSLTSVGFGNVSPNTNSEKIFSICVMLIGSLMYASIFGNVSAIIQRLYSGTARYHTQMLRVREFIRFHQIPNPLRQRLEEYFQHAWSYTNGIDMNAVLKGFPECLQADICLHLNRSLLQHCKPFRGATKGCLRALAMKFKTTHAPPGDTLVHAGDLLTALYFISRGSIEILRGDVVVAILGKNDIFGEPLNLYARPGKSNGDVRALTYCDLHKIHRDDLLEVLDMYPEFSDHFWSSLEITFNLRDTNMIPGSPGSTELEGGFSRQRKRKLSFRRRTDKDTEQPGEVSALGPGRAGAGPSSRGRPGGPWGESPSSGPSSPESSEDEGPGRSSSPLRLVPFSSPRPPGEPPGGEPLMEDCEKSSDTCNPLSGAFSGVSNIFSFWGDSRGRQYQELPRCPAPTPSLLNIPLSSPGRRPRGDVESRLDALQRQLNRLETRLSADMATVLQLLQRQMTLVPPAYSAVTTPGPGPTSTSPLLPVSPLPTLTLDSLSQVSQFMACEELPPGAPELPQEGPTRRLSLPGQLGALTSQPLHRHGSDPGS

Regarding `Fc1ccc(C(OCCN2CCN(CCCc3ccccc3)CC2)c2ccc(F)cc2)cc1` [GBR 12909, Vanoxerine], the “binding to the target site on the dopamine transporter (DAT), stronger than cocaine” value in data set [1] is on record as “approximately 50 times”. In addition, the “affinity to the serotonin transporter” value at serotonin transporter was “nanomolar affinity”. Also, the “IKr channel (hERG) block” value on IKr channel (hERG) was “potent IKr channel blocker”.
Turning to `[Mg+2]` [magnesium], the “cocaine craving scores, lower than in patients taking placebo” value in the data set on cocaine abusers was 78%.
